# From patent US20020170078A1, “Calcineurin-related transgenic mammals, compositions and methods” (priority 2001, published 2002)
# Test system: Schaffer collateral pathway to area CA1 of hippocampal slices
# Experiment: 1-train (100 Hz) LTP, field potential recordings in hippocampal slices
# Format: cell-based, mouse
Compound,"effect on the enhanced LTP (100 uM, at least 20 min pretreatment, mutant slices)","1-train LTP, % baseline 30 min after tetanus [% baseline]","effect on 1-train LTP (control slices, 30 min pretreatment)",effect on the increased potentiation (enhanced 1-train LTP) (mutant slices)
NC(CCCP(=O)(O)O)C(=O)O (racemic) [DL-AP5],abolished,,,
CCCCCCOC(=O)[C@]1(O)C[C@@H]2O[C@@]1(C)n1c3ccccc3c3c4c(c5c6ccccc6n2c5c31)C(=O)NC4 [KT5720],,134±6,no effect,suppressed
